Assay results reported in patent US20240228488A1 (TAKEDA PHARMACEUTICAL COMPANY LIMITED, priority 2021, published 2024).

The compounds below were run against human activated kallikrein enzyme (Homo sapiens, UniProt P03952) (assay: Plasma kallikrein inhibition, fluorogenic PFR-AMC substrate, 500 pM activated kallikrein format). Details: 500 pM activated kallikrein, 300 uM PFR-AMC, 30 min preincubation, 10 min reaction; read-out: Primary Dose Response Assay: Average EC50.
Assay type: biochemical
Method in brief: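 Fluorescence (ex 380/em 460 nm) is read after 10 min of 300 uM PFR-AMC turnover by 500 pM enzyme at RT. Compounds sit with enzyme for 30 min beforehand. Buffer is Tris (pH 7.5) with EDTA, NaCl, PEG-400 and Triton X-100; EC50 values are banded.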

human activated kallikrein enzyme, sequence (P03952 391-638 limits assumed): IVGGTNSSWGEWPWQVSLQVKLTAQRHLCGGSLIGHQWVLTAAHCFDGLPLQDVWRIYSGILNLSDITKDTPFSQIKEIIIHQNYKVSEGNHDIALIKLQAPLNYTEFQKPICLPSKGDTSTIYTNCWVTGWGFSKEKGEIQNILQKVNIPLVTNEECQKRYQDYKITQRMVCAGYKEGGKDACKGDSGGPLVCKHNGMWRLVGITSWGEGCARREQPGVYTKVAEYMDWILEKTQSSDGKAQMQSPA
human activated kallikrein enzyme, sequence (P03952 20-390 partner limits assumed): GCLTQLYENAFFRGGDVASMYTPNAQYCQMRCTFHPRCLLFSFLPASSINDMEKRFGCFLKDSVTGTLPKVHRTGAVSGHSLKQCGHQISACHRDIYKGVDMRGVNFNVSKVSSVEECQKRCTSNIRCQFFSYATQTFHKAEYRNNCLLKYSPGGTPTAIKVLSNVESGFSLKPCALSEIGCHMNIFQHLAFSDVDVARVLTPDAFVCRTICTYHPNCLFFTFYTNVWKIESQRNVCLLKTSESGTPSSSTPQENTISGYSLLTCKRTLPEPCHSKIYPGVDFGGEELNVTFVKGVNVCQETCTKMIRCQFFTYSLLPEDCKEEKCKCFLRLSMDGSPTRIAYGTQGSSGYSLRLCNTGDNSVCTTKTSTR

EC50 [nM]	SMILES
100 to 1000	CSc1nc(NCc2cn3cc(C4CC4)ccc3n2)cc(NC(=O)[C@@H]2C[C@H]2c2cccc(Cl)c2)n1 (racemic) [Example 106, rac-(1S*,2S*)-2-(3-chlorophenyl)-N-(6-(((6-cyclopropylimidazo[1,2-a]pyridin-2-yl)methyl)amino)-2-(methylthio)pyrimidin-4-yl)cyclopropane-1-carboxamide]
10 to 100	COc1ncccc1-c1cc(C2CC2)cn2cc(CNc3cc(NC(=O)[C@H]4C[C@@H]4c4cccc(Cl)c4)ncn3)nc12 [Example I-150, (1S,2S)-2-(3-chlorophenyl)-N-(6-(((6-cyclopropyl-8-(2-methoxypyridin-3-yl)imidazo[1,2-a]pyridin-2-yl)methyl)amino)pyrimidin-4-yl)cyclopropane-1-carboxamide]
< 1	Cc1ccnc([C@H]2C[C@@H]2C(=O)Nc2cc(N[C@H](C)c3cn4cc(C(F)F)cc(N5CC(=O)N(C)C5=O)c4n3)nc(C)n2)n1 [Example 428, (1S,2S)-N-(6-(((R)-1-(6-(difluoromethyl)-8-(3-methyl-2,4-dioxoimidazolidin-1-yl)imidazo[1,2-a]pyridin-2-yl)ethyl)amino)-2-methylpyrimidin-4-yl)-2-(4-methylpyrimidin-2-yl)cyclopropane-1-carboxamide]
1 to 10	Cc1ccnc([C@H]2C[C@@H]2C(=O)Nc2cn3c(Cc4cn5cc(C6CC6)cc(N6CC(=O)N(C)C6=O)c5n4)nnc3cn2)n1 [Example 630, (1S,2S)—N-(3-((6-cyclopropyl-8-(3-methyl-2,4-dioxoimidazolidin-1-yl)imidazo[1,2-a]pyridin-2-yl)methyl)-[1,2,4]triazolo[4,3-a]pyrazin-6-yl)-2-(4-methylpyrimidin-2-yl)cyclopropane-1-carboxamide]
1 to 10	O=C(Nc1cc2c(cn1)OCCN2Cc1cn2cc(C3CC3)ccc2n1)[C@H]1C[C@@H]1c1cccc(Cl)c1 [Example 597, (1S,2S)-2-(3-chlorophenyl)-N-(1-((6-cyclopropylimidazo[1,2-a]pyridin-2-yl)methyl)-2,3-dihydro-1H-pyrido[3,4-b][1,4]oxazin-7-yl)cyclopropane-1-carboxamide]
10 to 100	O=C(Nc1cc(NCc2cn3cc(C4CC4)cc(N4CCN5CC(F)(F)CC5C4)c3n2)ncn1)[C@H]1C[C@@H]1c1cccc(Cl)c1 (stereo partly drawn) [Example I-197, (1S,2S)-2-(3-chlorophenyl)-N-(6-(((6-cyclopropyl-8-(7,7-difluorohexahydropyrrolo[1,2-a]pyrazin-2(1H)-yl)imidazo[1,2-a]pyridin-2-yl)methyl)amino)pyrimidin-4-yl)cyclopropane-1-carboxamide]
< 1	N#Cc1ccc(Cl)cc1[C@H]1C[C@@H]1C(=O)Nc1cc(NCc2cn3cc(C4CC4)ccc3n2)ccn1 (single isomer, unassigned) [Example 84]
< 1	O=C(Nc1nccc2nn(Cc3cn4cc(C5CC5)ccc4n3)cc12)[C@H]1C[C@@H]1c1cc(Cl)ccn1 [Example 577, (1S,2S)-2-(4-chloropyridin-2-yl)-N-(2-((6-cyclopropylimidazo[1,2-a]pyridin-2-yl)methyl)-2H-pyrazolo[4,3-c]pyridin-4-yl)cyclopropane-1-carboxamide]
< 1	Cc1ccnc([C@H]2C[C@@H]2C(=O)Nc2cc(N[C@H](C)c3cn4cc(C5CC5)cc(N=S(C)(C)=O)c4n3)ncn2)n1 [Example 422, (1S,2S)-N-(6-(((R)-1-(6-cyclopropyl-8-((dimethyl(oxo)-16-sulfaneylidene)amino)imidazo[1,2-a]pyridin-2-yl)ethyl)amino)pyrimidin-4-yl)-2-(4-methylpyrimidin-2-yl)cyclopropane-1-carboxamide]
10 to 100	O=C(Nc1cc2c(cn1)ncn2Cc1cn2cc(C3CC3)ccc2n1)[C@H]1C[C@@H]1c1cccc(Cl)c1 (racemic) [Example 594, rac-(1S*,2S*)-2-(3-chlorophenyl)-N-(1-((6-cyclopropylimidazo[1,2-a]pyridin-2-yl)methyl)-1H-imidazo[4,5-c]pyridin-6-yl)cyclopropane-1-carboxamide]
10 to 100	Cc1ccnc([C@@H]2C[C@H]2C(=O)Nc2cc(NCc3cn4cc(C5CC5)cc(N5CC(=O)N(C)C5=O)c4n3)ncn2)n1 (single isomer, unassigned) [Example I-261]
1 to 10	NCc1cc(C2CC2)cn2cc(COc3ccnc(NC(=O)[C@H]4C[C@@H]4c4cccc(Cl)c4)c3)nc12 (racemic) [Example 572, rac-(1S*,2S*)—N-(4-((8-(aminomethyl)-6-cyclopropylimidazo[1,2-a]pyridin-2-yl)methoxy)pyridin-2-yl)-2(3-chlorophenyl)cyclopropane-1-carboxamide]
1 to 10	O=C(Nc1nccc2nn(Cc3cn4cc(C5CC5)ccc4n3)nc12)[C@H]1C[C@@H]1c1cccc(Cl)c1 [Example 583, (1S,2S)-2-(3-chlorophenyl)-N-(2-((6-cyclopropylimidazo[1,2-a]pyridin-2-yl)methyl)-2H-[1,2,3]triazolo[4,5-c]pyridin-4-yl)cyclopropane-1-carboxamide]
10 to 100	CC(C)(C)OC(=O)N1CC(c2cc(C3CC3)cn3cc(CNc4ccnc(NC(=O)[C@H]5C[C@@H]5c5cccc(Cl)c5)c4)nc23)C1 [Example I-226, tert-butyl 3-(2-(((2-((1S,2S)-2-(3-chlorophenyl)cyclopropane-1-carboxamido)pyridin-4-yl)amino)methyl)-6-cyclopropylimidazo[1,2-a]pyridin-8-yl)azetidine-1-carboxylate]
10 to 100	O=C(Nc1cc(NCc2cn3cc(C4CC4)ccc3n2)ncn1)[C@@]1(F)C[C@@H]1c1cccc(Cl)c1 (racemic) [Example I-184, rac-(1S*,2S*)-2-(3-chlorophenyl)-N-(6-(((6-cyclopropylimidazo[1,2-a]pyridin-2-yl)methyl)amino)pyrimidin-4-yl)-1-fluorocyclopropane-1-carboxamide]
10 to 100	O=C(Nc1ncncc1OCc1cn2cc(C3CC3)ccc2n1)[C@H]1C[C@@H]1c1cccc(Cl)c1 [Example 596, (1S,2S)-2-(3-chlorophenyl)-N-(5-((6-cyclopropylimidazo[1,2-a]pyridin-2-yl)methoxy)pyrimidin-4-yl)cyclopropane-1-carboxamide]
1000 to 6000	O=C(Nc1cc(NCc2nc3ccc(C4CC4)cn3c2Cl)ncn1)[C@H]1C[C@@H]1c1cccc(Cl)c1 (racemic) [Example 69, rac-(1S*,2S*)-N-(6-(((3-chloro-6-cyclopropylimidazo[1,2-α]pyridin-2-yl)methyl)amino)pyrimidin-4-yl)-2-(3-chlorophenyl)cyclopropane-1-carboxamide]
1 to 10	CN(C)C1CCN(c2cc(C3CC3)cn3cc(CNc4cc(NC(=O)[C@H]5C[C@@H]5c5cccc(Cl)c5)ncn4)nc23)C1 (single isomer, unassigned) [Example I-14]
100 to 1000	Cc1ccnc([C@H]2C[C@@H]2C(=O)Nc2ncnc3nn(Cc4cn5cc(C6CC6)cc(N6CC(=O)N(C)C6=O)c5n4)cc23)n1 (single isomer, unassigned) [Example I-633, rac-(1S*,2S*)—N-(2-((6-cyclopropyl-8-(3-methyl-2,4-dioxoimidazolidin-1-yl)imidazo[1,2-a]pyridin-2-yl)methyl)-2H-pyrazolo[3,4-d]pyrimidin-4-yl)-2-(4-methylpyrimidin-2-yl)cyclopropane-1-carboxamide]
